We go through two substances from patent US8622991B2, “Method and device for drug delivery” (Insuline Medical Ltd., priority 2007, dated 2014).

For data set [1] the following is noted: temperature to which the insulin can be exposed (insulin infused tissue region); cited from earlier work.
Data set [2] is described as follows: euglycemic glucose clamp study (Glucose Infusion Rate) after insulin pump bolus, with and without heating device. To be noted: FIG. 26a; for time to peak action (GIR): insulin bolus 0.15 U/kg by pump. Format: in vivo, human. The text has this:
The infusion set includes a tube 44 and a catheter 47, which is inserted into the subcutaneous tissue. […] The controller unit has a switch/button 48 for manual operation and two indicators 49 for “treatment is on” and for battery status. The two components are connected by wires 43.
The controller monitors the electromagnetic emission from the pump. During a bolus mode, the pump emits a well defined series of electromagnetic pulses at constant rate, shown as arrows 42. […] The temperature of the heater is controlled by the controller using a temperature sensor 45 located on the heating element.
The flat heating element used in this example has several layers. The upper layer is a polyethylene layer which seals the element. Below that layer, there is an etched circuit, below which there is a copper layer for heat distribution and mechanical support. Below that layer, there is another sealing polyethylene layer, below which there is an adhesive tape from 3M® which is bio-compatible. The heater has a thickness of less than 0.2 mm and his diameter is 3 cm. Thin electric wires of length of 60 cm with small connectors at both ends connected the heater to the controller unit. The power used for the heating can be 2 Watts. The heating was turned on and off by the controller to stabilize the skin temperature at 39° C. The heat duration was set to 30 minutes, after which the temperature regulation was stopped.
The subject lied down in supine position.
The above described procedure was performed in the same subjects under the same conditions with and without using the heating device. The two graphs show the GIR in glucose milligrams per minutes per subject's kg vs. time. […] There are many attempts to compose such an “artificial pancreas” since the development of continuous glucose monitors. […] Thus, another use of the methods and devices by the present invention is to combine them with a glucose sensor, insulin delivery device and a control algorithm to provide a better accuracy and robustness of a closed loop glucose level control system.

Turning to Insulin aspart [Novolog], the maximal limiting temperature in data set [1] is 37 °C.

insulin: the “time to peak action (GIR)” value in data set [2] (with heating (skin 39° C., 30 minutes), same subject) amounted to 50 min; in data set [2] (without heating, typical result in one diabetic subject) it was 75 min. The “GIR decrease (indication for insulin clearance out of the circulation and cessation of systemic effects)” value in data set [2] (with heating compared to without heating, same subject) is reported as “much faster”.
